{"source": "patent US11291739B2", "about": "“System and methods for sterilizing enclosed spaces using ozone” (Gene Therapy Systems, Inc., priority 2015, dated 2022)", "key": {"[1]": {"conditions": "cited from earlier work"}, "[2]": {"tested_on": "bacteriophage T1", "experiment": "Effect of ozone on bacteriophage T1 spotted on LB agar plates", "type": "cell-based", "conditions": "ozone 4 hours, peak less than 150 ppm, silver-coated mesh generator; 10^6-10^9 pfu/mL spots; DH5 E. coli overlay, 72 hours", "procedure": "In Experiment 2, the effect of ozone on bacteriophage T1 was studied. In the experiment, 2.5 μL of purified bacteriophage T1 was spotted in four quadrants of two LB agar plates—a test plate 610 and a control plate 620, shown in FIG. 11. The bacteriophage concentrations on each of the two plates were (clockwise from the spot in the upper right quadrant): 10^9 pfu/mL, 10^8 pfu/mL, 10^7 pfu/mL, and 10^6 pfu/mL.\nThe test plate 610 was placed in an incubator chamber containing both an ozone generator and an ozone degrader. The ozone generator included two ceramic plates surrounded substantially by a silver-coated metal mesh. The ozone generator was activated and the test plate 610 was treated with ozone for 4 hours. The ozone generator was then turned off, and the ozone degrader, formed of activated carbon filters, accelerated the conversion of ozone to oxygen. The peak ozone concentration level generated within the incubator chamber was less than 150 ppm ozone.\nThe control plate 620 was placed in a different incubator chamber and left untreated. After the ozone generation and degradation cycle completed in the incubator chamber containing the test plate 610, 1 mL of stationary DH5 E. coli bacteria and top agar were added to each plate and incubated at room temperature for 72 hours. The photograph in FIG. 11 was taken immediately following this 72-hour period."}, "[3]": {"tested_on": "E. coli K-12 cells (strain DH5)", "experiment": "Sterilization efficacy on LB agar plates loaded with E. coli in cell culture chamber", "type": "cell-based", "procedure": "(§1) In tests #2 and #3, represented by lines 520 and 530, respectively, both the ozone generator and an ozone degrader were present in the cell culture chamber. The ozone degrader was formed of three activated carbon filters. With the ozone degrader present, the ozone generator was unable to achieve the peak ozone concentration seen in test #1. In tests #2 and #3, the ozone generator was run for 120 minutes and the concentration of ozone noticeably plateaued. The air within the cell culture chamber reached a peak ozone concentration of approximately 140-150 ppm ozone. After the ozone generator was turned off, the ozone began to break down at an accelerated rate with the activated carbon filters present. In both tests #2 and #3, the ozone levels reached a level of 0.01 ppm ozone within 15 minutes.\nWhile the peak ozone concentrations reached in tests #2 and #3 were noticeably lower than the peak ozone concentration of test #1, the ozone levels in tests #2 and #3 were at least sufficient to achieve sterilization. In each of tests #2 and #3, sterilization efficacy was measured with the assistance of LB agar plates loaded with E. coli bacteria. As part of the experiment, E. coli K-12 cells (strain DH5) were grown overnight at 37° C. and the stationary phase was reached. […] The quantity of E. coli present was then analyzed and a photograph of each plate was taken."}, "[4]": {"experiment": "Ozone breakdown over time in enclosed cell culture chamber (calibrated ozone analyzer)", "type": "physicochemical", "procedure": "In Experiment 1, an 1800 mg/hour ozone generator was placed in a 5.5 cubic feet cell culture. The ozone level within the chamber was monitored using a calibrated ozone analyzer. Ozone measurements were captured every 10 seconds. The experimental results, as represented by ozone level over time, are provided in the line graph of FIG. 10A. In test #1, represented by line 510, the ozone generator was run for 80 minutes and achieved a peak ozone concentration within the cell culture chamber of approximately 325 ppm. After the ozone generator was turned off, the ozone was left to break down naturally within the enclosed cell culture chamber. It took approximately 28 hours for the ozone to breakdown to 0.01 ppm ozone.\nas §1, with “After the ozone generator was turned off, the ozone began to break down at an accelerated rate with the activated carbon filters present. In both tests #2 and #3, the ozone levels reached a level of 0.01 ppm ozone within 15 minutes.” left out"}}, "note": "Where two headings read alike, the source gives them in different places."}
{"molecule": "O=[O+][O-]", "note": "[ozone]", "values": [{"measurement": "half-life", "setting": "[1]; in the air", "value": "36 to 72", "unit": "h"}, {"measurement": "half-life", "setting": "[1]; in water", "value": "0.13 to 0.5", "unit": "h"}, {"measurement": "survival of the T1-phage", "setting": "[2]", "value": "negligible survival"}, {"measurement": "E. coli kill rate", "setting": "[3]; test #2, ozone 120 minutes, peak approximately 140-150 ppm, then 15 minutes degradation, plates incubated at 37° C. overnight", "value": 100, "unit": "%"}, {"measurement": "quantity of E. coli present after treatment", "setting": "[3]; test #2 test dish, control dish showed confluent growth", "value": "no E. coli was detected"}, {"measurement": "time for ozone to break down to 0.01 ppm", "setting": "[4]; test #1, natural breakdown from approximately 325 ppm, no ozone degrader, 5.5 cubic feet chamber", "value": "approximately 28 hours"}, {"measurement": "time for ozone levels to reach 0.01 ppm", "setting": "[4]; tests #2 and #3, from approximately 140-150 ppm, three activated carbon filters present", "value": "≤ 15", "unit": "min"}]}
